Measurements as given in patent US20220315908A1, “NOVEL GARDNERELLA ENDOLYSINS AND USES THEREOF” (priority 2019, published 2022).
≈ marks a conversion by molar mass, not a printed value.

Tested on: G. piotii (Gv_17)
Experiment: MIC and MBC microbroth dilution
Assay type: cell-based, Gardnerella piotii
Conditions: for MIC / MBC: Gardnerella piotii; for MIC: 48 h
Method: One of the main deficiencies in the treatment of BV is the high rate of recurrence in many women, which leads to repeated administration of antibiotics and concomitant destabilization of the microbiome and other side effects. The minimal inhibitory concentration (MIC) and minimal bactericidal concentration (MBC) on Gardnerella cells of the strains also used for the endolysin activity assays were then measured using the method described in Reference Example 6 and 7. […] Essentially, Gardnerella suspensions at 2.5×10^7 CFU/ml were incubated with the concentration of antibiotics as indicated and incubated for 48 h at 37° C. under anaerobic conditions. […] OD(610) was measured at the beginning and the end of the experiment. At the end of the experiment, 2 ul of each reaction mix was spotted on agar to determine the MBC.
The conditions under which MIC and MBC were measured are more rigorous than the standard.
Bacteria were plated from cryo stock on BD Choc Agar plates (Gardnerella) and incubated at 37° C. for 48 h under anaerobic conditions. Colonies were scraped from the plate, resuspended in Hardy Broth or NYC-III-HS-pH 5.0, and the suspension adjusted to OD (610 or 620 nm as indicated) 0.05. It has to be noted that two Tecan Microplate readers, having respectively a 610 nm or 620 nm filter, have been used interchangeably in the experiments. Although it doesn't make any difference for the experiments, the exact wavelength used is specified in each example. Antibiotics were prepared as 20× stocks for each of the required final concentrations. 95 μl of cell suspension was mixed with 5 μl antibiotics dilution in a 384-well plate. OD (610-620 as indicated) at the start of the reaction was measured, then the plate was incubated at 37° C. for 48 h under anaerobic conditions. After that, the OD (610-620 as indicated) was measured again for MIC determination, where MIC was defined as the lowest concentration of antibiotic where the OD (610-620 as indicated) was not above the level measured at the beginning of the experiment. After measuring OD, 2 μl of each well were spotted on a NYC-III+HS Agar plate. The plates were then incubated for further 48 h at 37° C. under anaerobic conditions. After incubation, cell growth on each spot was evaluated, and the MBC defined as the lowest concentration of antibiotics where no bacteria grew on the plate. The experiments were conducted in triplicate for each condition. In the second round of MIC and MBC experiments with antibiotics the Gardnerella cell suspension was adjusted to the McFarland standard 0.5 (approximately OD (610) 0.07) and then diluted 1:75 according to the CLSI (Clinical and Laboratory Standards Institute) standards. Antibiotics were prepared according to the CLSI standards and 50 μl of cell suspension was mixed in a 96-well plate with 50 μl antibiotics. Otherwise the MIC and MBC was determined as described above. For the MIC and MBC determination of the domain swapped endolysin H2B10 50 μl of Gardnerella cell suspension was mixed in a 96-well plate with 50 μl of H2B10 containing solution, which where serially diluted 1:1. OD610 at the start of the reaction was measured, then the plate was incubated at 37° C. for 48 h under anaerobic conditions. After that, the OD(610) was measured again for MIC determination, where MIC was defined as the lowest concentration of H2B10 where the OD was not or only slightly above the level measured at the beginning of the experiment.

MIC (first round: […]10^7 CFU/ml, Hardy broth, 384-well, 48 h 37° C. anaerobic): 64 µg/mL (≈ 374 µM)
MIC (second round: 1×10^5-1×10^6 CFU/ml (CLSI), NYC-III broth, 96-well, 48 h anaerobic): 16 µg/mL (≈ 93.5 µM)
resistance class of MIC, Metronidazole (first round): R (>=32 μg/mi for Metronidazole)
Structure (SMILES): Cc1ncc([N+](=O)[O-])n1CCO [Metronidazole]
MBC (first round: […]10^7 CFU/ml, minimal concentration fully eradicating the suspension): > 128 µg/mL
MBC (second round: 1×10^5-1×10^6 CFU/ml (CLSI), NYC-III broth, 96-well): 64 µg/mL (≈ 374 µM)
resistance class given with MBC, Metronidazole (second round): R (>=32 μg/mi for Metronidazole)
